Measured values taken from patent US20240207219A1, “Artemisia anti-bacterial compositions and methods of use for inhibition of cells of Mycobacterium species” (priority 2022, published 2024).

Assays:
[1] = test system: aerobically growing Mtb; conditions: aerobic growth
[2] = test system: Mtb in hypoxia-induced growth arrest; experiment: Bactericidal activity of HAB9 in hypoxic growth conditions (variation of the Wayne model)
[3] = test system: Mtb; conditions: in vitro; cited from earlier work

SMILES | bactericidal activity against aerobically growing Mtb [1] | bactericidal activity in hypoxia-induced growth arrest ([2]; hypoxic, non-replicating Mtb) | anti-mycobacterial activity in limiting oxygen compared to aerobically grown cells ([2]; limiting oxygen versus aerobic) | activity against Mtb under nutrient starvation or progressive oxygen depletion [3]
COc1ccc(-c2cc(=O)c3c(O)cc(OC)cc3o2)cc1 [Compound 1, 5-hydroxy-7-methoxy-2-(4-methoxyphenyl)chromen-4-one] | substantially reduced viable cultures of Mtb | substantially reduced viable cultures of Mtb | enhanced | –
NNC(=O)c1ccncc1 [isoniazid] | – | – | – | little or no activity
